How the values were obtained:
[1] = target: Lysophosphatidic acid receptor 4 (Homo sapiens) (UniProt Q99677); test: RLU of LPAR4 at 1.0 µM in the […] PRESTO-Tango GPCRome screen; details: Compound concentration 1.0 uM
[2] = target: Probable G-protein coupled receptor 150 (Homo sapiens) (UniProt Q8NGU9); test: RLU of GPR150 at 1.0 µM in the […] PRESTO-Tango GPCRome screen; details: Compound concentration 1.0 uM
[3] = target: C-C chemokine receptor type 10 (Homo sapiens) (UniProt P46092); test: RLU of CCR10 at 1.0 µM in the […] PRESTO-Tango GPCRome screen; details: Compound concentration 1.0 uM
Sequence of C-C chemokine receptor type 10 (Homo sapiens) (P46092 whole entry): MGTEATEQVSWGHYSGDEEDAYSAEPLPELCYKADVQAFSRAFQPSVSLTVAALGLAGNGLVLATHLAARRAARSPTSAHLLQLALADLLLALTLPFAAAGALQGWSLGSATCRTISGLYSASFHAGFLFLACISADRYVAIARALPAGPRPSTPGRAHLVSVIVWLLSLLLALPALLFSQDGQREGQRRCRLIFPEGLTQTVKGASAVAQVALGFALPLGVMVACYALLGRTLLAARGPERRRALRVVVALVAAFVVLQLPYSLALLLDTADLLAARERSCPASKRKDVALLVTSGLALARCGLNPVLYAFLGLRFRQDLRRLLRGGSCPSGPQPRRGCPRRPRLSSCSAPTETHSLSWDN

[4] = target: Probable G-protein coupled receptor 152 (Homo sapiens) (UniProt Q8TDT2); test: RLU of GPR152 at 1.0 µM in the […] PRESTO-Tango GPCRome screen; details: Compound concentration 1.0 uM
[5] = target: 5-hydroxytryptamine receptor 2B (Homo sapiens) (UniProt P41595); test: RLU of HTR2B at 1.0 µM in the […] PRESTO-Tango GPCRome screen; details: Compound concentration 1.0 uM
[6] = target: Type-1 angiotensin II receptor (Homo sapiens, UniProt P30556); test: IP-One assay (AGTR1), antagonist mode at up to 50 µM ( vs. 10 nM Val5-Angiotensin II); type: functional; parameters: compound concentration < 50 uM
Sequence of Type-1 angiotensin II receptor (P30556 whole entry): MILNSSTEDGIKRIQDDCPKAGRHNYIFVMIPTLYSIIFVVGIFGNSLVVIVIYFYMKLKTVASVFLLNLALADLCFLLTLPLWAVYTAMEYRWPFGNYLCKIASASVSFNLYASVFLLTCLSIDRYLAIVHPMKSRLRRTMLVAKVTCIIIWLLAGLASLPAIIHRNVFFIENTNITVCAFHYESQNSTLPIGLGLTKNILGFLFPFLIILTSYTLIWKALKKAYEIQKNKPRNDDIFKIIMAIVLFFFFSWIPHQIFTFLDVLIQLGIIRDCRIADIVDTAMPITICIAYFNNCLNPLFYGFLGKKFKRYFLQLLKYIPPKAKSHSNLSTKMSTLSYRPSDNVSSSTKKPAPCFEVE

[7] = target: D(1B) dopamine receptor (Homo sapiens) (UniProt P21918); test: RLU of DRD5 at 1.0 µM in the […] PRESTO-Tango GPCRome screen; details: Compound concentration 1.0 uM
[8] = target: Bombesin receptor subtype-3 (Homo sapiens) (UniProt P32247); test: RLU of BB3 at 1.0 µM in the […] PRESTO-Tango GPCRome screen; details: Compound concentration 1.0 uM
[9] = target: P2Y purinoceptor 14 (Homo sapiens) (UniProt Q15391); test: RLU of P2RY14 at 1.0 µM in the […] PRESTO-Tango GPCRome screen; details: Compound concentration 1.0 uM
[10] = target: G-protein coupled receptor 39 (Homo sapiens) (UniProt O43194); test: RLU of GPR39 at 1.0 µM in the […] PRESTO-Tango GPCRome screen; details: Compound concentration 1.0 uM
[11] = target: C-X-C chemokine receptor type 1 (Homo sapiens) (UniProt P25024); test: RLU of CXCR1 at 1.0 µM in the […] PRESTO-Tango GPCRome screen; details: Compound concentration 1.0 uM
Sequence of C-X-C chemokine receptor type 1 (Homo sapiens) (P25024 whole entry): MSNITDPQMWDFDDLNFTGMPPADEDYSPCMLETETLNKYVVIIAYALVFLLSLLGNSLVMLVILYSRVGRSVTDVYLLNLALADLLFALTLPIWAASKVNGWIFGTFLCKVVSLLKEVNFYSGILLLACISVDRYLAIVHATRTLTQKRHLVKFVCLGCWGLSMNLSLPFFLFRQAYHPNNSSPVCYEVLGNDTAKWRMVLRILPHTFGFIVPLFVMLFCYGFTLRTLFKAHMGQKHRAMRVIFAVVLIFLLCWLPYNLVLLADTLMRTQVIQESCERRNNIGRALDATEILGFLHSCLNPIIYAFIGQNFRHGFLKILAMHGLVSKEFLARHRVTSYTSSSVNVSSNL

[12] = target: Probable G-protein coupled receptor 162 (Homo sapiens) (UniProt Q16538); test: RLU of GPR162 at 1.0 µM in the […] PRESTO-Tango GPCRome screen; details: Compound concentration 1.0 uM
[13] = target: CX3C chemokine receptor 1 (Homo sapiens) (UniProt P49238); test: RLU of CX3C1 at 1.0 µM in the […] PRESTO-Tango GPCRome screen; details: Compound concentration 1.0 uM
[14] = target: Beta-2 adrenergic receptor (Homo sapiens) (UniProt P07550); test: RLU of ADRB2 at 1.0 µM in the […] PRESTO-Tango GPCRome screen; details: Compound concentration 1.0 uM
Sequence of Beta-2 adrenergic receptor (Homo sapiens) (P07550 whole entry, looked up): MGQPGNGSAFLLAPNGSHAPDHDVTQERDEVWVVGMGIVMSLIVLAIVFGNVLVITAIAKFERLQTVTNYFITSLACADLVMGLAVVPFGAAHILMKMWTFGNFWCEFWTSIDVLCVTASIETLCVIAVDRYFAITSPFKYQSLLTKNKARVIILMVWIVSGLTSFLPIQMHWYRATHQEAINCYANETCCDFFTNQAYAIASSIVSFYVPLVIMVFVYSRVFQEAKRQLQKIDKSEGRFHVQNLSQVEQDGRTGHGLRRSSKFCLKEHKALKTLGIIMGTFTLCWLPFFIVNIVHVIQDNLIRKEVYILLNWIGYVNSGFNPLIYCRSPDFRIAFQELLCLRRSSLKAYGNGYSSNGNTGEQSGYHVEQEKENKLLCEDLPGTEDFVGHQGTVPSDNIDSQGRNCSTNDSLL

[15] = target: Melatonin-related receptor (Homo sapiens) (UniProt Q13585); test: RLU of GPR50 at 1.0 µM in the […] PRESTO-Tango GPCRome screen; details: Compound concentration 1.0 uM
Sequence of Melatonin-related receptor (Homo sapiens) (Q13585 whole entry): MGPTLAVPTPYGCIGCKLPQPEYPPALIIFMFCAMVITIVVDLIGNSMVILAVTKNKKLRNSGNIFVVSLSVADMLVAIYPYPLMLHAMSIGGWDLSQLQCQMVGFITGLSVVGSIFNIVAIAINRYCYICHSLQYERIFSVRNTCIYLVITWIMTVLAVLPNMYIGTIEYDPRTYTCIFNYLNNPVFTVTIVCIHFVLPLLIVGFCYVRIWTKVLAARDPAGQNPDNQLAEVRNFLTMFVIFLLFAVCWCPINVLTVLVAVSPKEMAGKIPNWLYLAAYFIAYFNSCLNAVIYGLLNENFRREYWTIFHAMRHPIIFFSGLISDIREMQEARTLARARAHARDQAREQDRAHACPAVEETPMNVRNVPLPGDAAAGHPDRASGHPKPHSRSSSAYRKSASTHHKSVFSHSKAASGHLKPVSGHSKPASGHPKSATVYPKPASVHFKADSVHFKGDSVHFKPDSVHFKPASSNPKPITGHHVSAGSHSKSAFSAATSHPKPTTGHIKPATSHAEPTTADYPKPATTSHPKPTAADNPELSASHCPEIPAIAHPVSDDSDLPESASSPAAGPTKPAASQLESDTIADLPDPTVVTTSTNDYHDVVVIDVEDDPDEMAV

[16] = target: Substance-P receptor (Homo sapiens) (UniProt P25103); test: RLU of TACR1 at 1.0 µM in the […] PRESTO-Tango GPCRome screen; details: Compound concentration 1.0 uM
[17] = target: Platelet-activating factor receptor (Homo sapiens) (UniProt P25105); test: RLU of PTAFR at 1.0 µM in the […] PRESTO-Tango GPCRome screen; details: Compound concentration 1.0 uM
Sequence of Platelet-activating factor receptor (Homo sapiens) (P25105 whole entry): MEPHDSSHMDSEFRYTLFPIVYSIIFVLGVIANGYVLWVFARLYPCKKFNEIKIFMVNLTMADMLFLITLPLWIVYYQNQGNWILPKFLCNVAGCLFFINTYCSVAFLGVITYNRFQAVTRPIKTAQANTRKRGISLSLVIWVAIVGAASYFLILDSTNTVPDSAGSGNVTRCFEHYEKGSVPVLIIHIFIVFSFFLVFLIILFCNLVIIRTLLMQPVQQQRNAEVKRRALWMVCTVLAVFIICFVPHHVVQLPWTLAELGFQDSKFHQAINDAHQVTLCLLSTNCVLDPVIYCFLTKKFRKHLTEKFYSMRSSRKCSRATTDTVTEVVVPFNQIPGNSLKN

[18] = target: Proteinase-activated receptor 3 (Homo sapiens) (UniProt O00254); test: RLU of F2RL2 at 1.0 µM in the […] PRESTO-Tango GPCRome screen; details: Compound concentration 1.0 uM
[19] = target: Melanocortin receptor 3 (Homo sapiens) (UniProt P41968); test: RLU of MC3R at 1.0 µM in the […] PRESTO-Tango GPCRome screen; details: Compound concentration 1.0 uM
Opsin-3 (Homo sapiens) = Opsin-3 (Homo sapiens) (UniProt Q9H1Y3); test: RLU of OPN3 at 1.0 µM in the […] PRESTO-Tango GPCRome screen; details: Compound concentration 1.0 uM
Sequence of Opsin-3 (Homo sapiens) (Q9H1Y3 whole entry): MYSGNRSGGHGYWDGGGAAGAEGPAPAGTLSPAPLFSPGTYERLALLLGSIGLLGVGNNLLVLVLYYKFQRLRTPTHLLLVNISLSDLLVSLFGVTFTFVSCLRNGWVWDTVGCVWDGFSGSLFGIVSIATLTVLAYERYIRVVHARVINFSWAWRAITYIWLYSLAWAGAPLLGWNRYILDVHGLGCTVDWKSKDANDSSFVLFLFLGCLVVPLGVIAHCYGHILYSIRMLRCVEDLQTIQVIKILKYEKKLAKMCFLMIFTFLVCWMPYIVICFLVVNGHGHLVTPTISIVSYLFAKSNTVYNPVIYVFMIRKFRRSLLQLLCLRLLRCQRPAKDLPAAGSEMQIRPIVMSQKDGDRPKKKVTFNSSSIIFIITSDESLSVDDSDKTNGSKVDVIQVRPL

[20] = tested on: Pyroglutamylated RFamide peptide receptor (Homo sapiens); test: RLU of QRFP at 1.0 µM in the […] PRESTO-Tango GPCRome screen; details: Compound concentration 1.0 uM
[21] = target: Melanin-concentrating hormone receptor 1 (Homo sapiens) (UniProt Q99705); test: RLU of MCHR1 at 1.0 µM in the […] PRESTO-Tango GPCRome screen; details: Compound concentration 1.0 uM
[22] = target: Pituitary adenylate cyclase-activating polypeptide type I receptor (Homo sapiens) (UniProt P41586); test: RLU of ADCYAP1R1 at 1.0 µM in the […] PRESTO-Tango GPCRome screen; details: Compound concentration 1.0 uM
[23] = target: Endothelin-1 receptor (Homo sapiens) (UniProt P25101); test: RLU of EDNRA at 1.0 µM in the […] PRESTO-Tango GPCRome screen; details: Compound concentration 1.0 uM
[24] = target: Mas-related G-protein coupled receptor member X3 (Homo sapiens) (UniProt Q96LB0); test: RLU of MRGPRX3 at 1.0 µM in the […] PRESTO-Tango GPCRome screen; details: Compound concentration 1.0 uM
[25] = target: 5-hydroxytryptamine receptor 6 (Homo sapiens) (UniProt P50406); test: RLU of HTR6 at 1.0 µM in the […] PRESTO-Tango GPCRome screen; details: Compound concentration 1.0 uM
Sequence of 5-hydroxytryptamine receptor 6 (Homo sapiens) (P50406 whole entry): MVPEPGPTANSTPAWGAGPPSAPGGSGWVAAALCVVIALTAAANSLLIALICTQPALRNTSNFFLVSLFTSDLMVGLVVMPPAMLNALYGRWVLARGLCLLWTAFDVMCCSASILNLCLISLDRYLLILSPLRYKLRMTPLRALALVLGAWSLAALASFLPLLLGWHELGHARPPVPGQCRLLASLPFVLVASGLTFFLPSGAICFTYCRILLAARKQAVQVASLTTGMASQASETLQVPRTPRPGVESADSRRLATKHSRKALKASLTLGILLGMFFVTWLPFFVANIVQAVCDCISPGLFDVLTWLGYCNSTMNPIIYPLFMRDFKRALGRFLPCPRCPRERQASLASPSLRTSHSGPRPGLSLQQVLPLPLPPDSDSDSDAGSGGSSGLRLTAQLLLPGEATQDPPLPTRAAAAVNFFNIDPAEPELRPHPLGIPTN

[26] = target: Substance-K receptor (Homo sapiens) (UniProt P21452); test: RLU of TACR2 at 1.0 µM in the […] PRESTO-Tango GPCRome screen; details: Compound concentration 1.0 uM
[27] = target: Probable G-protein coupled receptor 85 (Homo sapiens) (UniProt P60893); test: RLU of GPR85 at 1.0 µM in the […] PRESTO-Tango GPCRome screen; details: Compound concentration 1.0 uM
Sequence of Probable G-protein coupled receptor 85 (Homo sapiens) (P60893 whole entry): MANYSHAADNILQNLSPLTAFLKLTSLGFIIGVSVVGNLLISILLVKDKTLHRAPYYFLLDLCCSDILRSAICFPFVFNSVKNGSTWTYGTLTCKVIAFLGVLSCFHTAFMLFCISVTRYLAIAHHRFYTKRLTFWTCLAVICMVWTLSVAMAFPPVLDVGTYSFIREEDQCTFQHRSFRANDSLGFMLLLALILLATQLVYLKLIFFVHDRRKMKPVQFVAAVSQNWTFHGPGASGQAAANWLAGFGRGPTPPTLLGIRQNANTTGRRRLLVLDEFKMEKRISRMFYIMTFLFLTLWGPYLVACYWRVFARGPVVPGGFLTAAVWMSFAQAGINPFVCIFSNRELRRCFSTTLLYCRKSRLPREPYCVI

[28] = target: Adenosine receptor A2a (Homo sapiens) (UniProt P29274); test: RLU of ADORA2A at 1.0 µM in the […] PRESTO-Tango GPCRome screen; details: Compound concentration 1.0 uM
[29] = target: C-C chemokine receptor-like 2 (Homo sapiens) (UniProt O00421); test: RLU of CCRL2 at 1.0 µM in the […] PRESTO-Tango GPCRome screen; details: Compound concentration 1.0 uM
Sequence of C-C chemokine receptor-like 2 (Homo sapiens) (O00421 whole entry): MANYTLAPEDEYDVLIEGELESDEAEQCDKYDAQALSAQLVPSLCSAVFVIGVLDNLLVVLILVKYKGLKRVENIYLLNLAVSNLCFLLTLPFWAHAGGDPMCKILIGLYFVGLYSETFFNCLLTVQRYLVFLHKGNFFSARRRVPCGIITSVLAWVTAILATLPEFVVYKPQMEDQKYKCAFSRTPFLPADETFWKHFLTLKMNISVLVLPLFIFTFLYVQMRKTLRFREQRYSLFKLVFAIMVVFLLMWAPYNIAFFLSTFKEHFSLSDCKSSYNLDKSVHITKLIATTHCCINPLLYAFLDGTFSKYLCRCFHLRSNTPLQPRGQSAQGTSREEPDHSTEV

[30] = target: G-protein coupled receptor 68 (Homo sapiens) (UniProt Q15743); test: RLU of GPR68 at 1.0 µM in the […] PRESTO-Tango GPCRome screen; details: Compound concentration 1.0 uM
[31] = target: Oxytocin receptor (Homo sapiens) (UniProt P30559); test: RLU of OXTR at 1.0 µM in the […] PRESTO-Tango GPCRome screen; details: Compound concentration 1.0 uM
Sequence of Oxytocin receptor (Homo sapiens) (P30559 whole entry): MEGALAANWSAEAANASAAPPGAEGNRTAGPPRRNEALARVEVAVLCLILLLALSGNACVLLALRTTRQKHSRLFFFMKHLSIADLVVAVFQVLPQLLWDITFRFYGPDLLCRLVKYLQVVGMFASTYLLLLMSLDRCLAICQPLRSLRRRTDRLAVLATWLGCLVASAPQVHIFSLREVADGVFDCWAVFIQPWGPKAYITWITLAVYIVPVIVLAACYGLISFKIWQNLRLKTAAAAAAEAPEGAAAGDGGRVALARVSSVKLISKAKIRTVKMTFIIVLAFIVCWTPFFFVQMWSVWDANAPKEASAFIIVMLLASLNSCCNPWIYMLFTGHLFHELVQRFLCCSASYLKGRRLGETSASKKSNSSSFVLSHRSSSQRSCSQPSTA

[32] = target: Muscarinic acetylcholine receptor M1 (Homo sapiens) (UniProt P11229); test: RLU of CHRM1 at 1.0 µM in the […] PRESTO-Tango GPCRome screen; details: Compound concentration 1.0 uM
[33] = target: Histamine H4 receptor (Homo sapiens) (UniProt Q9H3N8); test: RLU of HRH4 at 1.0 µM in the Aequorin PRESTO-Tango GPCRome screen; details: Compound concentration 1.0 uM
[34] = target: Adhesion G-protein coupled receptor G5 (Homo sapiens) (UniProt Q8IZF4); test: RLU of GPR114 at 1.0 µM in the […] PRESTO-Tango GPCRome screen; details: Compound concentration 1.0 uM
Sequence of Adhesion G-protein coupled receptor G5 (Homo sapiens) (Q8IZF4 whole entry): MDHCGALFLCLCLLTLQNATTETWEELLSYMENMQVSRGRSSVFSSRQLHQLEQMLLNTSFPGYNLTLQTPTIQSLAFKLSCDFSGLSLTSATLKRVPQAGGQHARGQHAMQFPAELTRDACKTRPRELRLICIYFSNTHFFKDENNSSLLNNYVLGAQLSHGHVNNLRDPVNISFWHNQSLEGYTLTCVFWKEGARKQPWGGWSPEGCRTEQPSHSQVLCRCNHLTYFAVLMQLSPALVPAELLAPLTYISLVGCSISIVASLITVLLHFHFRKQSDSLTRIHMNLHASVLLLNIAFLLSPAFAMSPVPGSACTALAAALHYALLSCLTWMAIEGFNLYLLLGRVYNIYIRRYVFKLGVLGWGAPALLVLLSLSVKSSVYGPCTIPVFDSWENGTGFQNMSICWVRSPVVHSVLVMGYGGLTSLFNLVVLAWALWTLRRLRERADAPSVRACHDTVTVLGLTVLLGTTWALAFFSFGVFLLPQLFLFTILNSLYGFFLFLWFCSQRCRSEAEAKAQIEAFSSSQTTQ

CCCCC(=O)N1CC2(C1)CN(c1ccccc1-c1nnn[nH]1)C2
RLU [1]: -668
RLU [2]: -1600
RLU [3]: 464
RLU [4]: -70
RLU [5]: -1740
EC50 [6]: > 50 µM (not active)
RLU [7]: 856
RLU [8]: -2040
RLU [9]: -5260
RLU [10]: 8020
RLU [11]: 812
RLU [12]: 6270
RLU [13]: -3290
RLU [14]: 4580
RLU [15]: 435000
RLU [16]: -4720
RLU [17]: 82.9
RLU [18]: 463
RLU [19]: 18.8
RLU (Opsin-3 (Homo sapiens)): 338
RLU [20]: -577
RLU [21]: 5930
RLU [22]: 1630
RLU [23]: -1160
RLU [24]: -916
RLU [25]: 5340
RLU [26]: -238
RLU [27]: -4210
RLU [28]: 1000
RLU [29]: -1900
RLU [30]: -1790
RLU [31]: -479
RLU [32]: -2940
RLU [33]: -637
RLU [34]: 432

Reference: ChEMBL document CHEMBL5723582, “Data for DCP probe T-10430” (2024)
